Test results reported in US9096591B2, “Tetracyclic compounds” (Medivation Technologies, Inc., priority 2007, dated 2015).

Assays:
[1] = target: T1, human recombinant dopamine D2L receptor (Homo sapiens, UniProt P14416); test: Dopamine D2L antagonist activity ([35S]GTPγS binding, SPA); format: biochemical; settings: for Antagonist Activity As Measured by % Inhibition D2L / inhibition at 0.03 µM / inhibition at 0.1 µM / inhibition at 0.3 µM: two values = assay run twice; for inhibition at 0.03 µM / inhibition at 0.1 µM / inhibition at 0.3 µM / inhibition at 1 µM / inhibition at 3 µM: read-out: Antagonist Activity As Measured by % Inhibition D2L
T1 construct: expressed in transfected cells; host or cells: CHO cells
Experimental: To determine for agonist or antagonist activity of compounds of the invention in functional assays, human recombinant dopamine D2L receptor stably expressed in Chinese hamster ovary (CHO) cells (Senogles S E et al. J Biol Chem. 265(8): 4507, 1990) was used. Compounds of invention were pre-incubated with the membranes (0.1 mg/ml) and […] in modified HEPES buffer (20 mM HEPES, pH 7.4, 100 mM NaCl, 10 mM MgCl2, 1 mM DTT, 1 mM EDTA) for 20 minutes and Scintillation Proximity Assay (SPA) beads were added for another 60 minutes at 30° C. The reaction was initiated by 0.3 nM [^35S]GTPγS for an additional 15 minute incubation period. […] Compounds were screened at 3 μM or lower, using 0.4% DMSO as vehicle. Assay results are presented as the percent response of specific binding in Table 8.

[2] = target: human recombinant dopamine D2S receptor (Homo sapiens, UniProt P14416); test: Dopamine D2S antagonist activity ([35S]GTPγS binding, SPA); format: biochemical; settings: for Antagonist Activity As Measured by % Inhibition D2S / inhibition at 0.03 µM / inhibition at 0.1 µM / inhibition at 0.3 µM: two values = assay run twice; for inhibition at 0.03 µM / inhibition at 0.1 µM / inhibition at 0.3 µM / inhibition at 1 µM / inhibition at 3 µM: read-out: Antagonist Activity As Measured by % Inhibition D2S
Experimental: To determine for agonist or antagonist activity of compounds of the invention in functional assays, human recombinant dopamine D2S receptor stably expressed in Chinese hamster ovary (CHO) cells (Gilliland S L and Alper R H. Naunyn-Schmiedeberg's Archives of Pharmacology. 361: 498, 2000) was used. Compounds of invention were pre-incubated with the membranes (0.05 mg/ml) and 3 μM GDP in modified HEPES buffer (20 mM HEPES, pH 7.4, 100 mM NaCl, 10 mM MgCl2, 1 mM DTT, 1 mM EDTA) for 20 minutes and Scintillation Proximity Assay (SPA) beads were then added for another 60 minutes at 30° C. The reaction was initiated by 0.3 nM [^35S]GTPγS for an additional 30 minute incubation period. […] Compounds were screened at 3 μM or lower, using 0.4% DMSO as vehicle. Assay results are presented as the percent response of specific binding in Table 9.

[3] = tested on: adrenergic receptors α1D, α2A, α2B; serotonin receptor 5-HT6; dopamine receptor D2L; test: Classification of compounds (Type 1-4) from receptor binding and neurite outgrowth
Description: Compounds of the invention that inhibit binding of a ligand to adrenergic receptors α1D, α2A, α2B and serotonin receptor 5-HT6 by at least about 80% as determined in a suitable assay such as the assays described herein can be classified as Type 1 compounds. […] In one variation, binding of a ligand to serotonin receptor 5-HT7 is at least about 80%. […] Weak inhibition of binding of a ligand to the histamine H1 receptor is permitted as agonists of this receptor have been implicated in stimulating memory as well as weight gain. In one variation, binding to histamine receptor H1 is inhibited by less than about 80%. […] Compounds that inhibit binding of a ligand to the dopamine D2L receptor by at least about 80% as determined in a suitable assay such as the assay described herein can be classified as Type 2 compounds.
In one variation, Type 1 compounds further inhibit binding of a ligand to dopamine receptor D2L by less than about 80% as determined in a suitable assay known in the art such as the assay described herein. […] In one variation, binding of a ligand to serotonin receptor 5-HT7, 5-HT2A and/or 5-HT2C is inhibited by at least about 80% as determined in a suitable assay such as the assays described herein. […] In one variation, binding of a ligand to histamine receptor H1 and/or H2 is inhibited by less than about 80% as determined by a suitable assay known in the art such as the assays described herein.
In one variation, biding to serotonin receptor 5-HT2A is inhibited by at least about 80% as determined in a suitable assay know in the art such as the assay described herein.

AMPA receptors = test: AMPA-receptor activity: kainic acid-induced currents in Purkinje cells (patch-clamp); format: cell-based, rat; settings: mean±SEM, control=100%
Experimental: The analysis of effects of the testing compounds on AMPA receptors was carried out using an electrophysiological patch-clamp method in whole cell configuration (Hamill et al., 1980) of the Purkinje cell fresh isolated from the cerebellum of juvenile rats (12-15 days). The isolation was carried out using a modified method (Kaneda et al., 1988) in which cerebral 400-600 μm sections were incubated for 60 min in the temperature controlled chamber in 10 mL of buffer solution (150 mM NaCl, 5 mM KCl, 2 mM CaCl2, 2 mM MgSO4.7H2O, 10 mM HEPES, 15 mM glucose, pH 7.42). The incubation solution was exchanged with the incubation buffer with pronase (2 mg/mL) and collagenase (1 mg/mL) for 70 min. After a 20 min wash with the original buffer, all sections were placed into the Petri dish and were separated using a Pasteur pipette. All solutions were constantly aerated with 100% O2 at 34° C. The composition of extracellular saline was: 150 mM NaCl, 5 mM KCl, 2.6 mM CaCl2, 2 mM MgSO4.7H2O, 10 mM HEPES, 15 mM glucose, pH 7.36. The transmembrane current was induced as a result of the activation of AMPA receptors by a superfusion with the agonist solution (kainic acid). The currents were measured using borosilicate microelectrodes (resistance […]) filled with 100 mM KCl, 11 mM EGTA, 1 mM CaCl2, 1 mM MgCl2, 10 mM HEPES, 5 mM ATP, pH 7.2. The currents were registered using EPC-9 (HEKA, Germany) and recorded with Pulse software package which was also purchased from HEKA. The analysis of observations was carried out using Pulsefit (HEKA, Germany) and the statistical significance was analyzed using a Student's T-test criteria. Data are presented as mean±SEM in % of control values.
Compounds of the invention were tested in 3-5 neurons. Every concentration of compound was repeated three-four times in every neuron. Data are presented as mean±SEM in % of Control values (Table 13+14, FIGS. 8-12). Control value=100%.

T1 sequence (P14416 whole entry): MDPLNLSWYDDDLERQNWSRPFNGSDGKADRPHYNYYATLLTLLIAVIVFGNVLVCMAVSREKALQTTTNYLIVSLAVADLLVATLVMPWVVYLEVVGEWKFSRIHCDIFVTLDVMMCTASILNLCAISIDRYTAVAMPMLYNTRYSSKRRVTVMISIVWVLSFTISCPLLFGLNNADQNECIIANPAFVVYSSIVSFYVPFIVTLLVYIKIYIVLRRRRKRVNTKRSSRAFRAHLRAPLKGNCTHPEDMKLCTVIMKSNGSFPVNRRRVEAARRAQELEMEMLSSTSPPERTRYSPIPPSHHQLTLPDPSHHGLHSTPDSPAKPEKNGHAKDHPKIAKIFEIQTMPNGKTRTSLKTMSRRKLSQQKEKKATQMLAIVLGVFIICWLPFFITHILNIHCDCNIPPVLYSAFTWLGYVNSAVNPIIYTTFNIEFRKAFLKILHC
Sequence of human recombinant dopamine D2S receptor (P14416 1-414 isoform P14416-2): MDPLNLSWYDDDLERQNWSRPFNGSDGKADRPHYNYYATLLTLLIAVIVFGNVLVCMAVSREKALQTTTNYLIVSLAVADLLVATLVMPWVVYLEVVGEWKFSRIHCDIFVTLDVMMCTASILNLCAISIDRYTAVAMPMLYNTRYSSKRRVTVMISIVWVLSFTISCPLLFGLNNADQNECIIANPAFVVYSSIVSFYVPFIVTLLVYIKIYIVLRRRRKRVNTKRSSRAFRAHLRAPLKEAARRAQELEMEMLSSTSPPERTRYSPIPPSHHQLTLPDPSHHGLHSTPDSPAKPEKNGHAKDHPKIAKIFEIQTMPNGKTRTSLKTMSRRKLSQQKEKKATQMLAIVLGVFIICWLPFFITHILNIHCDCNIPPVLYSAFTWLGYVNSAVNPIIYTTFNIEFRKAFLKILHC

Row | SMILES | compound type (classification by receptor binding profile and neurite outgrowth) [3] | kainic acid-induced currents in Purkinje cells, % of Control values (AMPA receptors; compound 10^−5 M) | kainic acid-induced currents in Purkinje cells, % of Control values (AMPA receptors; compound 10^−6 M) | kainic acid-induced currents in Purkinje cells, % of Control values (AMPA receptors; compound 10^−7 M) | kainic acid-induced currents in Purkinje cells, % of Control values (AMPA receptors; compound 10^−8 M) | kainic acid-induced currents in Purkinje cells, % of Control values (AMPA receptors; compound 10^−9 M) | kainic acid-induced currents in Purkinje cells, % of Control values (AMPA receptors; compound 3 × 10^−5 M) | other results
1 | CN1CCc2c(c3cc(Cl)ccc3n2CCc2ccccc2)C1 [Compound 36, 8-chloro-2,3,4,5-tetrahydro-2-methyl-5-phenethyl-1H-pyrido[4,3-b]indole] |  |  |  |  |  |  |  | Antagonist Activity As Measured by % Inhibition D2L ([1]; 0.03 uM): 43%; inhibition at 0.03 µM ([1]; 0.03 uM): 48%; Antagonist Activity As Measured by % Inhibition D2L ([1]; 0.1 uM): 57%; inhibition at 0.1 µM ([1]; 0.1 uM): 73%; Antagonist Activity As Measured by % Inhibition D2L ([1]; 0.3 uM): 88%; inhibition at 0.3 µM ([1]; 0.3 uM): 83%; inhibition at 1 µM [1]: 85%; inhibition at 3 µM [1]: 104%; Antagonist Activity As Measured by % Inhibition D2S ([2]; 0.03 uM): 85%; inhibition at 0.03 µM ([2]; 0.03 uM): 76%; inhibition at 0.1 µM ([2]; 0.1 uM): 97%; Antagonist Activity As Measured by % Inhibition D2S ([2]; 0.3 uM): 104%; inhibition at 0.3 µM ([2]; 0.3 uM): 98%; inhibition at 1 µM [2]: 102%; inhibition at 3 µM [2]: 107%
2 | CN1CCc2c(c3cc(I)ccc3n2CCc2ccccc2F)C1 [Compound 89, 5-(2-fluorophenethyl)-2,3,4,5-tetrahydro-8-iodo-2-methyl-1H-pyrido[4,3-b]indole] | Type one |  |  |  |  |  |  | 
3 | COc1ccc(CCn2c3c(c4cc(C)ccc42)CN(C)CC3)cc1 [Compound 247] |  |  |  |  |  |  |  | Antagonist Activity As Measured by % Inhibition D2L ([1]; 0.03 uM): 52%; inhibition at 0.03 µM ([1]; 0.03 uM): 48%; inhibition at 0.1 µM ([1]; 0.1 uM): 66%; Antagonist Activity As Measured by % Inhibition D2L ([1]; 0.3 uM): 83%; inhibition at 0.3 µM ([1]; 0.3 uM): 81%; inhibition at 1 µM [1]: 89%; inhibition at 3 µM [1]: 91%; Antagonist Activity As Measured by % Inhibition D2S ([2]; 0.03 uM): 68%; inhibition at 0.03 µM ([2]; 0.03 uM): 67%; Antagonist Activity As Measured by % Inhibition D2S ([2]; 0.1 uM): 89%; inhibition at 0.1 µM ([2]; 0.1 uM): 97%; Antagonist Activity As Measured by % Inhibition D2S ([2]; 0.3 uM): 93%; inhibition at 0.3 µM ([2]; 0.3 uM): 81%; inhibition at 1 µM [2]: 110%; inhibition at 3 µM [2]: 108%
4 | CCOc1ccc(CCn2c3c(c4cc(C)ccc42)CN(C)CC3)cc1 [Compound 334, 5-[2-(4-Ethoxy-phenyl)-ethyl]-2,8-dimethyl-2,3,4,5-tetrahydro-1H-pyrido[4,3-b]indole] | Type one |  |  |  |  |  |  | 
5 | Cc1ccc(CCn2c3c(c4cc(Br)ccc42)CN(C)CC3)cn1 [Compound 487, 8-bromo-2-methyl-5-(2-(6-methylpyridin-3-yl)ethyl)-2,3,4,5-tetrahydro-1H-pyrido[4,3-b]indole] | Type one |  |  |  |  |  |  | 
6 | Cc1ccc2c(c1)c1c(n2CCc2nc(-c3ccccc3)cs2)CCN(C)C1 [Compound C1-5] |  | 126 ± 18% | 64 ± 23% | 70 ± 23% | 62 ± 12% | 64 ± 8% |  | 
7 | COc1ccc2c(c1)c1c(n2CCc2nc(-c3ccccc3)cs2)CCN(C)C1 [Compound C1-6] |  | 135 ± 1% | 146 ± 12% | 116 ± 7% | 101 ± 4% | 100 ± 3% | 130 ± 6% | 
8 | CN1CCc2c(c3ccccc3n2CCc2noc(-c3ccccc3)n2)C1 [Compound C4-1] |  | 97 ± 4% | 110 ± 5% | 115 ± 3% | 147 ± 11% | 125 ± 6% |  | 
9 | Cc1ccc2c(c1)c1c(n2CCc2noc(-c3ccccc3)n2)CCN(C)C1 [Compound C4-4] |  | 150 ± 26% | 142 ± 11% | 147 ± 15% | 129 ± 5% | 100% | 150 ± 20% | 
10 | CN1CCc2c(c3cc(Cl)ccc3n2CCc2noc(-c3ccccc3)n2)C1 [Compound C4-6] |  | 152 ± 30% | 140 ± 25% | 120 ± 20% | 100 ± 3% |  | 149 ± 33% | 
